Data taken from PubChem BioAssay (NCI).
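In this assay, cells in 96-well plates receive the compound at five concentrations for 48 hours. Endpoints are linearly interpolated between the surrounding concentrations. At the GI50, growth is halved. At the TGI there is no net growth.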

Assays:
Experiment in all cases: inhibition of tumour cell growth, NCI panel, 48 h; in the data active = GI50 below about 0.43 µM; inactive = the rest
[1] = tested on: NCI-H522 lung
[2] = tested on: T-47D breast
[3] = tested on: SF-539 CNS
[4] = tested on: KM12 colon
[5] = tested on: HL-60(TB) leukemia
[6] = tested on: UACC-62 melanoma
[7] = tested on: NCI-H460 lung
[8] = tested on: SN12C renal
[9] = tested on: HCT-116 colon
[10] = tested on: TK-10 renal
[11] = tested on: MDA-MB-231 breast
[12] = tested on: UACC-257 melanoma
[13] = tested on: NCI/ADR-RES ovarian
[14] = tested on: SK-OV-3 ovarian
[15] = tested on: OVCAR-4 ovarian
[16] = tested on: A498 renal
[17] = tested on: HCT-15 colon
[18] = tested on: HCC-2998 colon
[19] = tested on: CCRF-CEM leukemia
[20] = tested on: MALME-3M melanoma
[21] = tested on: SK-MEL-2 melanoma
[22] = tested on: RPMI-8226 leukemia
[23] = tested on: OVCAR-3 ovarian
[24] = tested on: SK-MEL-28 melanoma
[25] = tested on: OVCAR-5 ovarian
[26] = tested on: HT29 colon
[27] = tested on: HS 578T breast
[28] = tested on: SF-268 CNS
[29] = tested on: SR leukemia
[30] = tested on: PC-3 prostate
[31] = tested on: HOP-62 NSCLC
[32] = tested on: HOP-92 NSCLC
[33] = tested on: M14 melanoma
[34] = tested on: K-562 leukemia
[35] = tested on: OVCAR-8 ovarian
[36] = tested on: UO-31 renal
[37] = tested on: NCI-H226 lung
[38] = tested on: EKVX NSCLC
[39] = tested on: A549 NSCLC
[40] = tested on: IGROV1 ovarian
[41] = tested on: MOLT-4 leukemia
[42] = tested on: 786-0 renal
[43] = tested on: SF-295 CNS
[44] = tested on: ACHN renal
[45] = tested on: COLO 205 colon
[46] = tested on: SW-620 colon
[47] = tested on: CAKI-1 renal
[48] = tested on: DU-145 prostate
[49] = tested on: NCI-H23 lung
[50] = tested on: BT-549 breast
[51] = tested on: SNB-75 CNS
[52] = tested on: MCF7 breast
[53] = tested on: SNB-19 CNS
[54] = tested on: RXF 393 renal
[55] = tested on: SK-MEL-5 melanoma
[56] = tested on: MDA-MB-435
[57] = tested on: U251 CNS
[58] = tested on: LOX IMVI melanoma
[59] = tested on: MDA-N

C[C@@H]1Cc2cc(O)ccc2[C@H]2CC[C@]3(C)/C(=C/COCCN(C)C)CC[C@H]3[C@H]12 (tested in a mixture with another compound)
360 nM: TGI [49]
620 nM: TGI [14]
1460 nM: TGI [24]
514 nM: TGI [36]
344 nM: TGI [23]
339 nM: TGI [3]
316 nM: TGI [54]
578 nM: TGI [47]
474 nM: TGI [43]
875 nM: TGI [56]
1650 nM: TGI [18]
724 nM: TGI [25]
3150 nM: TGI [11]
895 nM: TGI [4]
628 nM: TGI [5]
436 nM: TGI [27]
865 nM: TGI [20]
1970 nM: TGI [37]
612 nM: TGI [52]
201 nM: TGI [44]
482 nM: TGI [46]
872 nM: TGI [32]
739 nM: TGI [31]
528 nM: TGI [57]
472 nM: TGI [38]
735 nM: TGI [1]
618 nM: TGI [42]
276 nM: TGI [48]
193 nM: TGI [39]
1340 nM: TGI [53]
364 nM: TGI [35]
1440 nM: TGI [33]
1030 nM: TGI [45]
1300 nM: TGI [30]
416 nM: TGI [19]
679 nM: TGI [2]
780 nM: TGI [9]
461 nM: TGI [10]
389 nM: TGI [58]
208 nM: TGI [7]
789 nM: TGI [8]
625 nM: TGI [6]
487 nM: TGI [41]
1210 nM: TGI [40]
235 nM: TGI [28]
550 nM: TGI [17] | TGI [29]
845 nM: TGI [21]
985 nM: TGI [34]
453 nM: TGI [55]
inactive: GI50 [11] 833 nM | GI50 [12] 495 nM | GI50 [16] 534 nM | GI50 [18] 448 nM | GI50 [24] 456 nM | GI50 [37] 744 nM
771 nM: TGI [15]
active: GI50 [1] 131 nM | GI50 [2] 122 nM | GI50 [3] 176 nM | GI50 [4] 309 nM | GI50 [5] 244 nM | GI50 [6] 250 nM | GI50 [7] 70.4 nM | GI50 [8] 111 nM | GI50 [9] 245 nM | GI50 [10] 209 nM | GI50 [13] 192 nM | GI50 [14] 228 nM | GI50 [15] 271 nM | GI50 [17] 205 nM | GI50 [19] 159 nM | GI50 [20] 324 nM | GI50 [21] 323 nM | GI50 [22] 239 nM | GI50 [23] 180 nM | GI50 [25] 251 nM | GI50 [26] 368 nM | GI50 [27] 82.2 nM | GI50 [28] 111 nM | GI50 [29] 212 nM | GI50 [30] 233 nM | GI50 [31] 285 nM | GI50 [32] 216 nM | GI50 [33] 381 nM | GI50 [34] 256 nM | GI50 [35] 180 nM | GI50 [36] 221 nM | GI50 [38] 145 nM | GI50 [39] 55.7 nM | GI50 [40] 379 nM | GI50 [41] 83.3 nM | GI50 [42] 198 nM | GI50 [43] 175 nM | GI50 [44] 42.9 nM | GI50 [45] 363 nM | GI50 [46] 214 nM | GI50 [47] 213 nM | GI50 [48] 142 nM | GI50 [49] 107 nM | GI50 [50] 294 nM | GI50 [51] 235 nM | GI50 [52] < 20.8 nM | GI50 [53] 364 nM | GI50 [54] 105 nM | GI50 [55] 205 nM | GI50 [56] 268 nM | GI50 [57] 216 nM | GI50 [58] 187 nM
2010 nM: TGI [12]
694 nM: TGI [22]
1200 nM: TGI [26]
1590 nM: TGI [16]
755 nM: TGI [51]
800 nM: TGI [50]
419 nM: TGI [13]

NC(N)=NCCC(O)(P(=O)(O)O)P(=O)(O)O
57400 nM: TGI [27]
> 100000 nM: TGI [1] | TGI [3] | TGI [4] | TGI [6] | TGI [7] | TGI [9] | TGI [10] | TGI [11] | TGI [12] | TGI [13] | TGI [14] | TGI [17] | TGI [18] | TGI [20] | TGI [23] | TGI [59] | TGI [25] | TGI [28] | TGI [30] | TGI [31] | TGI [33] | TGI [36] | TGI [37] | TGI [38] | TGI [39] | TGI [40] | TGI [42] | TGI [43] | TGI [44] | TGI [45] | TGI [47] | TGI [48] | TGI [49] | TGI [50] | TGI [52] | TGI [53] | TGI [54] | TGI [55] | TGI [58]

COC(=O)Cc1c(-c2c(CC(=O)OC)c3ccccc3n2C2OC(COC(C)=O)C(OC(C)=O)C(OC(C)=O)C2OC(C)=O)[nH]c2ccccc12 (stereo unspecified)
> 100000 nM: TGI [1] | TGI [4] | TGI [6] | TGI [7] | TGI [8] | TGI [9] | TGI [10] | TGI [11] | TGI [12] | TGI [14] | TGI [15] | TGI [16] | TGI [17] | TGI [18] | TGI [19] | TGI [20] | TGI [21] | TGI [22] | TGI [23] | TGI [24] | TGI [59] | TGI [25] | TGI [26] | TGI [28] | TGI [29] | TGI [30] | TGI [31] | TGI [32] | TGI [33] | TGI [36] | TGI [38] | TGI [39] | TGI [40] | TGI [41] | TGI [43] | TGI [45] | TGI [46] | TGI [47] | TGI [48] | TGI [49] | TGI [50] | TGI [53] | TGI [55] | TGI [56] | TGI [57]
